4 compounds from patent US10004222B2, “Small molecule ice recrystallization inhibitors and methods of use thereof” (THE UNIVERSITY OF OTTAWA, priority 2012, dated 2018) can be followed below.

Several values for one entry are separate records, joined by “and”; a condition that tells them apart may be missing. Equal values may be shown once.

The test system of assay [1] is CD34+ cells (hematopoietic stem cells). As to the kind of experiment: colony forming unit (CFU) assay after cryopreservation of umbilical cord blood. The format is cell-based, human. Particulars: for BFU-E / CFU-G / CFU-GEMM / CFU-GM / CFU-M / Total Number of Colonies: 10% DMSO, post-thaw, 14 days in Methocult; for combined results of the CFU assays vs control: UCB units 26, 27, 28 combined, FIG. 41. As to the method:
Aliquots of LC (50,000 CD34^+ cells) are added to 2.0 mL cryovials. For each experiment, four cryovials are prepared (two for post-thaw viability analysis using flow cytometry and two for functionality analysis using the colony forming unit assay). Cryovials are kept on ice until placement in −80° C. freezer. Cryovials are centrifuged at 400 g and 10° C. for 5 minutes to pellet cells. After centrifugation, the time taken until placement in −80° C. freezer should not exceed 10 minutes. Supernatant is removed by aspiration or by decanting, but preferably by aspiration. Plasma (volume depends on desired cryosolution concentration) is added and cells are suspended by pipetting. Pre-made cryosolutions (see Cryosolutions) are added (volume depends on desired cryosolution concentration) and mixed by pipetting. Cryovials are placed in a Mr. Frosty® rate controlled freezing container which is then placed in a −80° C. freezer for 24 hours. By placing the cryovials in the freezing container, their contents undergo a cooling rate of about −1° C. per minute. After 24 hours, the cryovials are transferred to a liquid nitrogen dewar for storage until thawed for analysis.
Cryosolutions are prepared in distilled autoclaved water supplemented with 0.9% saline and 5% dextran for cryopreservation experiments and diluted with different volumes of plasma in cryovials depending on desired concentration of ice recrystallization inhibitor. N-(4-chlorophenyl)-D-gluconamide (4a) and N-(2-fluorophenyl)-D-gluconamide (2a) are prepared at 25 mM and N-(4-methoxyphenyl)-D-gluconamide (3a) and N-(2,6-difluorobenzyl)-D-gluconamide (1b) are prepared at 55 mM. 100, 50, 33 or 20 μL of 25 mM N-(4-chlorophenyl)-D-gluconamide (4a) or N-(2-fluorophenyl)-D-gluconamide (2a) are added to cryovials containing 50,000 CD34^+ cells suspended in 0, 50, 67, or 80 μL of plasma, respectively, for a final IRI concentration of 25, 12.5, 8 or 5 mM, respectively. 100, 50, 33 or 20 μL of 55 mM N-(4-methoxyphenyl)-D-gluconamide (3a) or N-(2,6-difluorobenzyl)-D-gluconamide (1b) are added to cryovials containing 50,000 CD34^+ cells suspended in 0, 50, 67, or 80 μL of plasma, respectively, for a final IRI concentration of […], 18 or 11 mM, respectively.
Cryovials are thawed in a 37° C. water bath and diluted with 900 μL of IMDM (10% FBS, 1% penicillin/streptomycin). Cryovials are placed on ice until washed. Samples are mixed by pipetting and 80 μL is transferred to a 15 mL Falcon tube. 5 mL of Iscove's Modified Dulbecco's Medium (IMDM) supplemented with 10% fetal bovine serum (FBS) is added and this mixture is centrifuged at 1100 rpm for six minutes to yield a cell pellet and a supernatant. The supernatant is removed by aspiration and the cell pellet is resuspended in 1 mL IMDM (2% FBS) to form a suspension. The suspension is mixed by pipetting. 150 μL of this cell suspension is added to 3 mL Methocult™ media and plating is performed in accordance with manufacturer's instruction. The suspension with Methocult™ media is mixed adequately by vortexing for 20 seconds. The contents are allowed to settle and bubbles are allowed to subside before plating (approximately 5-10 minutes). Using a 3 mL syringe and 16 gauge blunt needles, 2.5 mL of the cell suspension in Methocult™ is taken from the bottom. 1 mL of this 2.5 mL is added to two 5 mL cell culture dishes. The dishes are swirled to ensure cells in Methocult™ medium coat the entire bottom of the dish. A third 5 mL dish is prepared to contain distilled autoclaved water without a lid. These three 5 mL dishes are placed in a 100 mL plate; two 5 mL dishes contain 1 mL of cell suspension in Methocult™ medium with the lid on and one containing distilled autoclaved water with the lid off. The lid is placed on the 100 mL plate and stored in a 37° C. incubator (5% CO2) for two weeks.

Assay [2] in a line: splat cooling ice recrystallization inhibition (IRI) assay. Particulars: for decrease in grain size: mean grain size vs PBS alone, 30 min at −6.4° C., FIG. 28. As to the method:
In this assay, the area of ice crystals are measured after a 30 minute annealing time at −6.4° C. and compared to a positive control for ice recrystallization resulting in a quantitative measurement of the mean ice grain size. For a positive control, a phosphate buffered saline (PBS) solution was utilized. All samples were normalized to the PBS positive control. The ice recrystallization inhibition activity of the carbohydrate-based non-ionic surfactants n-octyl-β-D-glucopyranoside (compound 3) and n-octyl-β-D-galactopyranoside (compound 4) is shown in FIG. 1.
In this assay, the area of ice crystals are measured after a 30 minute annealing time at −6.4° C. and compared to a positive control for ice recrystallization resulting in a quantitative measurement of the mean ice grain size. For a positive control, a PBS solution was utilized. All samples were normalized to the PBS positive control.
N-aryl-D-gluconamides (3a), (2a), (4a), and (1b) are a class of low molecular weight carbohydrate-based compounds. The ice recrystallization inhibition activity of (3a), (2a), (4a), and (1b) was assessed using a “splat cooling” assay. In this assay, the area of ice crystals are measured after a 30 minutes annealing time at −6.4° C. and compared to a positive control for ice recrystallization resulting in a quantitative measurement of the mean ice grain size. For a positive control, PBS was utilized. All samples were normalized to the PBS positive control.

In assay [1] (11 mM IRI), `O=C(NCc1c(F)cccc1F)[C@H](O)[C@@H](O)[C@H](O)[C@H](O)CO` [(1b), N-(2,6-difluorobenzyl)-D-gluconamide] returned a BFU-E of 25.3, a CFU-G of 4.3, a CFU-GEMM of 2.4 and a CFU-GM of 9.8. For the same compound, in assay [1] (11 mM IRI), the CFU-M turned out to be 1.5 and the “Total Number of Colonies” value is on record as 41.9. Moreover, the “Tot. No. Colonies” value in assay [1] (11 mM IRI, UCB Unit 27) was 31 and 30. In addition, in assay [1] (18 mM IRI), the BFU-E is reported as 24.0, the CFU-G came out at 9.5, the CFU-GEMM is 7.5 and the CFU-GM came to 11.0. Also, in assay [1] (18 mM IRI), the CFU-M is listed as 4.5 and the “Total Number of Colonies” value was determined as 56.5. Further, the “fold increase in functionality relative to the control” value in assay [1] (18 mM vs DMSO only) stood at 1.8 fold. Besides, in assay [1] (27.5 mM IRI), the CFU-G was determined as 3.0, the CFU-GEMM amounted to 3.5, the CFU-GM is listed as 11.0 and the “Total Number of Colonies” value is listed as 48.0. Moreover, in assay [1] (55 mM IRI), the BFU-E stood at 29.5, the CFU-G is on record as 8.5, the CFU-GEMM worked out at 1.5 and the CFU-GM came to 10.5. In addition, in assay [1] (55 mM IRI), the CFU-M is 0.5 and the “Total Number of Colonies” value is listed as 50.5. Also, in assay [1], the “combined results of the CFU assays vs control” value (“combined results … vs control” for short) is given as “performed particularly well”. Further, the “ice recrystallization inhibition activity” value in assay [2] (concentration not given) is “higher IRI activity than compound (2b)”. Also, the “decrease in grain size” value in assay [2] was “about 85%”.
With `O=C(Nc1ccccc1F)[C@H](O)[C@@H](O)[C@H](O)[C@H](O)CO` [(2a), N-(2-fluorophenyl)-D-gluconamide], the “Tot. No. Colonies” value was 48 and 66 and 42 in assay [1] (5 mM IRI, UCB Unit 26); 38 and 34 in assay [1] (5 mM IRI, UCB Unit 27). Besides, the “combined results … vs control” value in assay [1] is “performed particularly well”. Also, the “decrease in grain size” value in assay [2] was roughly 95%.
For `COc1ccc(NC(=O)[C@H](O)[C@@H](O)[C@H](O)[C@H](O)CO)cc1` [(3a), N-(4-methoxyphenyl)-D-gluconamide], in assay [1] (11 mM IRI), the BFU-E is on record as 20.5, the CFU-G was 5.5, the CFU-GEMM worked out at 5.9 and the CFU-GM is listed as 7.4. Further, in assay [1] (11 mM IRI), the CFU-M was determined as 0.9 and the “Total Number of Colonies” value was 40.4. For the same compound, the “Tot. No. Colonies” value in assay [1] (11 mM IRI, UCB Unit 27) is 33 and 37. Moreover, in assay [1] (18 mM IRI), the BFU-E turned out to be 18.0, the CFU-G is on record as 8.8, the CFU-GEMM came out at 2.8 and the CFU-GM is recorded as 11.3. In assay [1] (18 mM IRI), the CFU-M was determined as 0.3 and the “Total Number of Colonies” value is 36.0. Besides, in assay [1] (27.5 mM IRI), the CFU-G was 6.5, the CFU-GEMM was determined as 15.5, the CFU-GM is 14.0 and the “Total Number of Colonies” value is given as 74.5. Moreover, in assay [1] (27.5 mM vs DMSO only), the “fold increase in functionality relative to the control” value is recorded as 2.4 fold. In assay [1] (55 mM IRI), this compound had a BFU-E of 24.5, a CFU-G of 9.5, a CFU-GEMM of 6.5 and a CFU-GM of 15.0. Moreover, in assay [1] (55 mM IRI), the CFU-M is reported as 1.0 and the “Total Number of Colonies” value amounted to 56.5. Besides, the “combined results … vs control” value in assay [1] is recorded as “performed particularly well”. The “decrease in grain size” value in assay [2] was roughly 95%.
With `O=C(Nc1ccc(Cl)cc1)[C@H](O)[C@@H](O)[C@H](O)[C@H](O)CO` [(4a), N-(4-chlorophenyl)-D-gluconamide], in assay [1] (5 mM IRI), the BFU-E was found to be 22.2, the CFU-G is 4.2, the CFU-GEMM is given as 6.8 and the CFU-GM is 11.5. In assay [1] (5 mM IRI), the CFU-M came out at 1.3 and the “Total Number of Colonies” value turned out to be 46.0. Besides, the “Tot. No. Colonies” value in assay [1] (5 mM IRI, UCB Unit 27) was 47 and 38. In assay [1] (8 mM IRI), this compound showed a BFU-E of 17.0, a CFU-G of 8.0, a CFU-GEMM of 4.0 and a CFU-GM of 10.5. In assay [1] (8 mM IRI), the CFU-M was found to be 0.5 and the “Total Number of Colonies” value was determined as 40.0. Besides, in assay [1] (12.5 mM IRI), the BFU-E worked out at 44.0, the CFU-G was found to be 1.5, the CFU-GEMM worked out at 0.0 and the CFU-GM was determined as 8.5. In assay [1] (12.5 mM IRI), the CFU-M stood at 3.0 and the “Total Number of Colonies” value was 61.0. In addition, in assay [1] (25 mM IRI), the BFU-E was 37.0, the CFU-G is 11.5, the CFU-GEMM is recorded as 2.0 and the CFU-GM was found to be 10.5. Further, in assay [1] (25 mM IRI), the CFU-M was 2.0 and the “Total Number of Colonies” value came to 63.0. Also, the “fold increase in functionality relative to the control” value in assay [1] (25 mM vs DMSO only) is 2.0 fold. In assay [1], the “combined results … vs control” value is on record as “performed particularly well”. The “decrease in grain size” value in assay [2] is roughly 60%.
